{
  "source": "paper PMC6013495",
  "about": "“Development of a Novel Backbone Cyclic Peptide Inhibitor of the Innate Immune TLR/IL1R Signaling Protein MyD88” (Scientific Reports, 2018)",
  "key": {"[1]": {"target": "T1, human MyD88 TIR domain (aa 150–296) (Homo sapiens, UniProt Q99836)", "T1 construct": "human MyD88 TIR domain residues 150–296; His tag; made in house; host or cells: E. coli BL21 C43 (DE3)", "T1 sequence (Q99836 150-296)": "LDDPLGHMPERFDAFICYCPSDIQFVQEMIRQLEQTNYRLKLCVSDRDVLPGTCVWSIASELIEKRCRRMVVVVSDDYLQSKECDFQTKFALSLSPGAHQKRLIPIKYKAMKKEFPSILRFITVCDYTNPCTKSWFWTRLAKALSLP", "assay": "Competitive binding assay, Biotin-MyDI on recombinant SUMO-MyD88-TIR", "conditions": "SUMO-MyD88-TIR 8 µg/ml coated, Streptavidin-HRP read-out", "text": "A synthetic DNA fragment corresponding to the cDNA encoding human MyD88 TIR domain residues 150–296 with BamH/Xhol restriction enzymes was from IDT (Integrated DNA technologies, IA, USA). DNA was amplified with the Ready-mix PCR kit (Sigma), and ligated (New England BioLabs, MA, USA) with the restriction enzymes BamH and Xhol (TaKaRa, Kusatsu, Shiga Prefecture, Japan) to pETM-11 SUMO3GFP fusion vector for protein expression in E. coli, a gift from the EMBL protein expression and purification core facility. Plasmids were gel purified with PureLink Quick Gel Extraction kit (Invitrogen, San Diego, CA, USA), sequence verified, and transformed to (C2987) NEB Dh5a competent cells (New England BioLabs) and amplified with a QIAGEN plasmid midiprep kit. The recombinant fusion protein- SUMO-MyD88-TIR was expressed in E. coli BL21 C43 (DE3) cells (Lucigen, WI, USA). E. coli BL21 C43(DE3) were grown in 2xYT medium containing 1% glucose, […] MgSO4 and 20xNPS (100 mM PO4, 25mMSO4, 50 mM NH4. 100 mM Na, 50 mM K) up to mid-log phase (O.D-0.6) in 37 °C and then were grown o.n at 25 °C with 0.4 mM IPTG (Sigma). […]\nThe recombinant SUMO-MyD88-TIR protein (8 µg/ml) was attached to polystyrene microtiter 96 well plates (Nunc, Roskilde, Denmark) at 4 °C o.n. […] After 5 min, 2 N sulfuric acid stop solution was added and absorbance was read at 450 nm in an Infinite 200 Pro plate reader (Tecan). […]"}, "[2]": {"target": "T2, SUMO protein fused to eGFP (Homo sapiens, UniProt P55854)", "T2 construct": "His tag; made in house; host or cells: E. coli BL21 C43 (DE3)", "assay": "Binding of Biotin-MyDI to control SUMO-eGFP fusion protein", "conditions": "SUMO-eGFP coated, Streptavidin-HRP read-out"}},
  "data": [
    {"substance": "Biotin-MyDI: Biotinylated linear BB loop peptide RDVLPGT, from Bio Basic Inc.", "values": [
      {"measurement": "binding to the MyD88 TIR domain", "setting": "[1]", "result": "bound the TIR domain in a concentration dependent manner"},
      {"measurement": "binding to control fusion protein", "setting": "[2]", "result": "did not bind at any concentration"}
    ]}
  ]
}
